Laboratory results taken from patent US9556165B2 (priority 2012, dated 2017).
Values after ≈ are worked out from the molar mass of the structure shown. Where two headings read alike, the source gives them in different places.

Key:
Assay type in all cases: cell-based
[1] = tested on: P. aeruginosa 2297 (AmpC wt); assay: MIC determination, broth microdilution (CLSI); details: Pseudomonas aeruginosa, strain 7
strain 21 = assay: MIC determination, broth microdilution (CLSI)
E. coli ATCC25922 = assay: MIC determination, broth microdilution (CLSI); details: Escherichia coli, ATCC25922, strain 1
strain 19 = assay: MIC determination, broth microdilution (CLSI)
E. coli J62 = assay: MIC determination, broth microdilution (CLSI); details: Escherichia coli, J62, strain 17
S. pneumoniae 113 = assay: MIC determination, broth microdilution (CLSI)
E. cloacae 34654 = assay: MIC determination, broth microdilution (CLSI); details: Enterobacter cloacae, 34654, strain 3
C. freundii K21/3034 = assay: MIC determination, broth microdilution (CLSI); details: Citrobacter freundii, K21/3034, strain 4
P. aeruginosa PAO1 = assay: MIC determination, broth microdilution (CLSI); details: Pseudomonas aeruginosa, PAO1, strain 6
strain 20 = assay: MIC determination, broth microdilution (CLSI)
A. baumannii ATCC15308 = assay: MIC determination, broth microdilution (CLSI); details: Acinetobacter baumannii, ATCC15308, strain 9
K. pneumoniae 60 = assay: MIC determination, broth microdilution (CLSI); details: Klebsiella pneumoniae, 60, strain 2
M. morganii 126/3048 = assay: MIC determination, broth microdilution (CLSI); details: Morganella morganii, 126/3048, strain 5
E. coli J62-TEM-3 = assay: MIC determination, broth microdilution (CLSI); details: Escherichia coli
C. perfringens DSM756 = assay: microbe, parasite or virus in culture; details: Clostridium perfringens, DSM756, read-out: MIC strain 16 (C. perfringens DSM756), strain 16; broth microdilution
H. influenzae ATCC 49247 = assay: MIC determination, broth microdilution (CLSI); details: Haemophilus influenzae, ATCC49247, strain 12; broth microdilution; read-out: MIC strain 12 (H. influenzae ATCC 49247)
B. fragilis 6688 = assay: MIC determination, broth microdilution (CLSI); details: Bacteroides fragilis, 6688, strain 15; broth microdilution; read-out: MIC strain 15 (B. fragilis 6688)
S. aureus 133 = assay: MIC determination, broth microdilution (CLSI)
Bacteria = assay: MIC determination in combination with β-lactamase inhibitors (constant 4 μg/mL)
[2] = tested on: P. aeruginosa 2297-con (AmpC derepressed); assay: MIC determination, broth microdilution (CLSI); details: Pseudomonas aeruginosa, read-out: strain 8 MIC, strain 8
S. maltophilia ICB7569 = assay: MIC determination, broth microdilution (CLSI); details: Stenotrophomonas maltophilia, ICB7569, strain 10
[3] = Streptococcus pneumoniae, 113, strain 14, read-out: strain 14 MIC
[4] = J62TEM3, read-out: MIC strain 18 (E. coli J62-TEM-3), strain 18, broth microdilution
[5] = broth microdilution, read-out: MIC strain 17 (E. coli J62)
[6] = Streptococcus pneumoniae, 113, strain 13, broth microdilution, read-out: MIC strain 13 (S. pneumoniae 113)
[7] = Staphylococcus aureus, 133, strain 11, read-out: strain 11 MIC
[8] = Staphylococcus aureus, 133, strain 14, broth microdilution, read-out: MIC strain 14 (S. aureus 133)

| Compound | MIC [1] [µg/mL] | MIC (E. coli ATCC25922) [µg/mL] | MIC (E. cloacae 34654) [µg/mL] | MIC (C. freundii K21/3034) [µg/mL] | MIC (P. aeruginosa PAO1) [µg/mL] | MIC (A. baumannii ATCC15308) [µg/mL] | MIC (K. pneumoniae 60) [µg/mL] | MIC (M. morganii 126/3048) [µg/mL] | MIC (C. perfringens DSM756) [µg/mL] | MIC (H. influenzae ATCC 49247) [µg/mL] | MIC (E. coli J62-TEM-3; [4]) [µg/mL] | MIC (E. coli J62; [5]) [µg/mL] | MIC (S. pneumoniae 113; [6]) [µg/mL] | MIC (B. fragilis 6688) [µg/mL] | MIC (S. aureus 133; [7]) [µg/mL] | MIC strain 19 (E. coli J62-TEM-3 + 4 μg/mL clavulanic acid) (Bacteria) | MIC strain 20 (E. coli J62-TEM-3 + 4 μg/mL sulbactam) (Bacteria) | MIC strain 21 (E. coli J62-TEM-3 + 4 μg/mL tazobactam) (Bacteria) | MIC [2] [µg/mL] | MIC (S. maltophilia ICB7569) [µg/mL] | other results |
| --- | --- | --- | --- | --- | --- | --- | --- | --- | --- | --- | --- | --- | --- | --- | --- | --- | --- | --- | --- | --- | --- |
| C[C@@H]1[C@H](NC(=O)/C(=N\OCCOc2ccc(C(=N)N)cc2)c2csc(N)n2)C(=O)N1OS(=O)(=O)O [Example 10, (2Z)-2-(2-Amino-1,3-thiazol-4-yl)-2-{[2-(4-carbamimidoylphenoxy)ethoxy]imino}-N-[(2R,3S)-2-methyl-4-oxo-1-(sulfooxy)azetidin-3-yl]ethanamide] | 8 (≈ 15.2 µM) | 0.5 (≈ 0.948 µM) | 1 (≈ 1.9 µM) | 1 (≈ 1.9 µM) | 8 (≈ 15.2 µM) | 8 (≈ 15.2 µM) | 2 (≈ 3.79 µM) | 4 (≈ 7.58 µM) |  |  |  |  |  |  |  |  |  |  |  |  | MIC (strain 21): 0.5 µg/mL (≈ 0.948 µM); MIC (strain 19): 0.5 µg/mL (≈ 0.948 µM); MIC (E. coli J62; read-out: strain 17 MIC): 0.5 µg/mL (≈ 0.948 µM); MIC (S. pneumoniae 113; [3]): 2 µg/mL (≈ 3.79 µM); MIC (strain 20): 0.5 µg/mL (≈ 0.948 µM) |
| C[C@H]1[C@H](NC(=O)/C(=N\OCCOc2ccc(C(=N)N)cc2F)c2csc(N)n2)C(=O)N1S(=O)(=O)O [Example 19, (2S,3S)-3-{[(2Z)-2-(2-Amino-1,3-thiazol-4-yl)-2-{[2-(4-carbamimidoyl-2-fluorophenoxy)ethoxy]imino}acetyl]amino}-2-methyl-4-oxoazetidine-1-sulfonic acid] | 16 (≈ 30.2 µM) | 0.5 (≈ 0.944 µM) | 0.5 (≈ 0.944 µM) | 0.5 (≈ 0.944 µM) | 8 (≈ 15.1 µM) | 4 (≈ 7.55 µM) | 0.125 (≈ 0.236 µM) | 0.25 (≈ 0.472 µM) |  |  |  |  |  |  |  |  |  |  |  |  | MIC (strain 21): 1 µg/mL (≈ 1.89 µM); MIC (E. coli J62-TEM-3; J62TEM3, read-out: strain 18 MIC, strain 18): 32 µg/mL (≈ 60.4 µM); MIC (strain 19): 0.5 µg/mL (≈ 0.944 µM); MIC (E. coli J62; read-out: strain 17 MIC): 0.5 µg/mL (≈ 0.944 µM); MIC (S. pneumoniae 113; [3]): 16 µg/mL (≈ 30.2 µM); MIC (strain 20): 1 µg/mL (≈ 1.89 µM) |
| CC1(C)[C@H](NC(=O)/C(=N\O[C@@H](COc2ccc(C(=N)NC(CN)CN)cc2)C(=O)O)c2csc(N)n2)C(=O)N1OS(=O)(=O)O [Example 102, (2S)-2-({[(1Z)-1-(2-Amino-1,3-thiazol-4-yl)-2-{[(3S)-2,2-dimethyl-4-oxo-1-(sulfooxy)azetidin-3-yl]amino}-2-oxoethylidene]amino}oxy)-3-{4-[N-(1,3-diaminopropan-2-yl)carbamimidoyl]phenoxy}propanoic acid] | 2 (≈ 3.04 µM) | 0.125 (≈ 0.19 µM) | 0.25 (≈ 0.38 µM) | ≤ 0.063 | 1 (≈ 1.52 µM) | 4 (≈ 6.08 µM) | ≤ 0.063 | ≤ 0.063 | 2 (≈ 3.04 µM) | ≤ 0.063 | 4 (≈ 6.08 µM) | 0.125 (≈ 0.19 µM) | 0.5 (≈ 0.76 µM) | 8 (≈ 12.2 µM) | ≤ 0.063 | ≦0.063 mg/L | ≦0.063 mg/L | 0.125 µg/mL | 2 (≈ 3.04 µM) | 4 (≈ 6.08 µM) |  |
| CC1(C)[C@H](NC(=O)/C(=N\O[C@@H](COc2ccc(C(=N)NC3CNCC3N)cc2)C(=O)O)c2csc(N)n2)C(=O)N1OS(=O)(=O)O (stereo partly drawn) [Example 106, (2S)-3-{4-[N-(4-Aminopyrrolidin-3-yl)carbamimidoyl]phenoxy}-2-({[(1Z)-1-(2-amino-1,3-thiazol-4-yl)-2-{[(3S)-2,2-dimethyl-4-oxo-1-(sulfooxy)azetidin-3-yl]amino}-2-oxoethylidene]amino}oxy)propanoic acid] | 2 (≈ 2.99 µM) | 0.125 (≈ 0.187 µM) | 0.125 (≈ 0.187 µM) | 0.125 (≈ 0.187 µM) | 1 (≈ 1.49 µM) | 2 (≈ 2.99 µM) | 0.125 (≈ 0.187 µM) | ≤ 0.063 | 1 (≈ 1.49 µM) | ≤ 0.063 | 8 (≈ 11.9 µM) | 0.125 (≈ 0.187 µM) | 0.5 (≈ 0.747 µM) | 8 (≈ 11.9 µM) | ≤ 0.063 | 0.125 µg/mL | ≦0.063 mg/L | 0.125 µg/mL | 1 (≈ 1.49 µM) | 4 (≈ 5.97 µM) |  |
| CC1(C)[C@H](NC(=O)/C(=N\O[C@@H](COc2ccc(C(=N)NC3CNC3)cc2)C(=O)O)c2csc(N)n2)C(=O)N1OS(=O)(=O)O [Example 107, (2S)-2-({[(1Z)-1-(2-Amino-1,3-thiazol-4-yl)-2-{[(3S)-2,2-dimethyl-4-oxo-1-(sulfooxy)azetidin-3-yl]amino}-2-oxoethylidene]amino}oxy)-3-{4-[N-(azetidin-3-yl)carbamimidoyl]phenoxy}propanoic acid] | 1 (≈ 1.56 µM) | ≤ 0.063 | 0.25 (≈ 0.39 µM) | ≤ 0.063 | 1 (≈ 1.56 µM) | 1 (≈ 1.56 µM) | 0.125 (≈ 0.195 µM) | ≤ 0.063 | 0.125 (≈ 0.195 µM) | ≤ 0.063 | 4 (≈ 6.24 µM) | 0.125 (≈ 0.195 µM) | 0.5 (≈ 0.78 µM) | 8 (≈ 12.5 µM) | ≤ 0.063 | ≦0.063 mg/L | ≦0.063 mg/L | ≦0.063 mg/L | 1 (≈ 1.56 µM) | 4 (≈ 6.24 µM) | MIC (S. aureus 133; [8]): 32 µg/mL (≈ 49.9 µM) |
| CC1(C)[C@H](NC(=O)/C(=N\O[C@@H](COc2ccc(C(=N)NC3CCNCC3)cc2)C(=O)O)c2csc(N)n2)C(=O)N1OS(=O)(=O)O [Example 108, (2S)-2-({[(1Z)-1-(2-Amino-1,3-thiazol-4-yl)-2-{[(3S)-2,2-dimethyl-4-oxo-1-(sulfooxy)-azetidin-3-yl]amino}-2-oxoethylidene]amino}oxy)-3-{4-[N-(piperidin-4-yl)carbamimidoyl]phenoxy}propanoic acid] | 1 (≈ 1.5 µM) | 0.125 (≈ 0.187 µM) | 0.125 (≈ 0.187 µM) | ≤ 0.063 | 0.5 (≈ 0.748 µM) | 1 (≈ 1.5 µM) | 0.125 (≈ 0.187 µM) | ≤ 0.063 | 1 (≈ 1.5 µM) | ≤ 0.063 | 4 (≈ 5.98 µM) | 0.125 (≈ 0.187 µM) | 0.5 (≈ 0.748 µM) | 8 (≈ 12 µM) | ≤ 0.063 | ≦0.063 mg/L | ≦0.063 mg/L | 0.125 µg/mL | 1 (≈ 1.5 µM) | 4 (≈ 5.98 µM) | MIC (S. aureus 133; [8]): 32 µg/mL (≈ 47.9 µM) |
| CN1CC(NC(=N)c2ccc(OC[C@H](O/N=C(\C(=O)N[C@@H]3C(=O)N(OS(=O)(=O)O)C3(C)C)c3csc(N)n3)C(=O)O)cc2)C1 [Example 109] | 2 (≈ 3.05 µM) | 0.125 (≈ 0.191 µM) | 0.125 (≈ 0.191 µM) | 0.125 (≈ 0.191 µM) | 2 (≈ 3.05 µM) | 2 (≈ 3.05 µM) | 0.125 (≈ 0.191 µM) | 0.125 (≈ 0.191 µM) | 4 (≈ 6.11 µM) | ≤ 0.063 | 2 (≈ 3.05 µM) | 0.125 (≈ 0.191 µM) | 0.5 (≈ 0.764 µM) | 16 (≈ 24.4 µM) | ≤ 0.063 | ≦0.063 mg/L | 0.25 µg/mL | 0.125 µg/mL | 2 (≈ 3.05 µM) | 8 (≈ 12.2 µM) |  |
| CC1(C)[C@H](NC(=O)/C(=N\O[C@@H](COc2ccc(C(=N)NCCNc3ncccn3)cc2)C(=O)O)c2csc(N)n2)C(=O)N1OS(=O)(=O)O [Example 110, (2S)-2-({[(1Z)-1-(2-Amino-1,3-thiazol-4-yl)-2-{[(3S)-2,2-dimethyl-4-oxo-1-(sulfooxy)azetidin-3-yl]amino}-2-oxoethylidene]amino}oxy)-3-(4-{N-[2-(pyrimidin-2-ylami-no)ethyl]carbamimidoyl}phenoxy)propanoic acid] | 8 (≈ 11.3 µM) | 0.5 (≈ 0.707 µM) | 1 (≈ 1.41 µM) | 0.5 (≈ 0.707 µM) | 8 (≈ 11.3 µM) | 32 (≈ 45.3 µM) | 1 (≈ 1.41 µM) | 0.25 (≈ 0.354 µM) | 8 (≈ 11.3 µM) | ≤ 0.063 | 32 (≈ 45.3 µM) | 1 (≈ 1.41 µM) | 0.25 (≈ 0.354 µM) | 16 (≈ 22.6 µM) | ≤ 0.063 | 0.5 µg/mL | 0.5 µg/mL | 0.5 µg/mL | 16 (≈ 22.6 µM) | 8 (≈ 11.3 µM) |  |
